From publication PMC5988692, “AZ304, a novel dual BRAF inhibitor, exerts anti-tumour effects in colorectal cancer independently of BRAF genetic status” (British Journal of Cancer, 2018)

Assays:
L-363 = assay: Cell proliferation assay (cell panel, MTS); type: cell-based; settings: Homo sapiens, 72 h; L-363, Leukemia, BRAF WT, NRAS MT, 3 days
Method: (§1) The proliferation assays against a cell panel were performed as described in ref.[18] Briefly, the cells were treated with DMSO or multiple concentrations of AZ304 for 3 days. The cell growth was determined using the CellTiter 96 Aqueous One Cell Proliferation Assay (Promega, Madison, WI). […] The assays were done in triplicate across different plates.
(§2) Anti-proliferative activity of AZ304 against a panel of cell lines with different BRAF and RAS genetic status. […] Cell growth was determined by MTS assay.

CHL-1 = assay: Cell proliferation assay (cell panel, MTS); type: cell-based; settings: Homo sapiens, 72 h; CHL-1, Melanoma, BRAF WT, RAS WT, 3 days
Method: as §1, §2

COLO205 = assay: Cell proliferation assay (cell panel, MTS); type: cell-based; settings: Homo sapiens, COLO 205, 72 h; COLO205, Colon, BRAF V600E HT, RAS WT, 3 days
Method: as §1, §2

PANC-1 = assay: Cell proliferation assay (cell panel, MTS); type: cell-based; settings: Homo sapiens, 72 h; PANC-1, Pancreas, BRAF WT, KRAS MT, 3 days
Method: as §1, §2

SW620 = assay: Cell proliferation assay (cell panel, MTS); type: cell-based; settings: Homo sapiens, SW-620, 72 h; SW620, Colon, BRAF WT, KRAS MT, 3 days
Method: as §1, §2

A549 = assay: Cell proliferation assay (cell panel, MTS); type: cell-based; settings: Homo sapiens, 72 h; A549, Lung, BRAF WT, KRAS MT, 3 days
Method: as §1, §2

PC-3 = assay: Cell proliferation assay (cell panel, MTS); type: cell-based; settings: Homo sapiens, 72 h; PC-3, Prostate, BRAF WT, RAS WT, 3 days
Method: as §1, §2

A549 cells = assay: Western blot p-ERK and p-p38; type: cell-based, human
Method: (§3) For western-blotting in A375, A549 and MC-F7 cell lines, the detailed method was described in ref.[18] […] For western-blot in selected CRC cell lines, the cells were collected after treatment for indicated time and washed twice with cold PBS. Then cells were lysed in 1% Triton lysis buffer (50 mmol/L Tris-HCl, pH 7.4, 10 mmol/L EDTA, 100 mmol/L NaF, 150 mmol/L NaCl, 1% Triton X-100, 1 mmol/L PMSF 1 mmol/L Na3VO4 and 2 μg/mL aprotinin). After sonication and centrifugation, samples were quantified with the Lowry method. Next, all the protein samples were boiled at 95 °C for 5 min with 3× sampling buffer. After that, all the lysate samples were resolved by SDS polyacrylamide gel electrophoresis (SDS-PAGE) and followed by western blotting which means electronically transferred to nitrocellulose membranes. After blocking with 5% skim milk in TBST buffer (10 mM Tris-HCl pH 7.4, 150 mM NaCl, 0.1% Tween 20) at room temperature for 1 h, the blots were incubated with indicated antibodies shaking for 2 h, then overnight at 4 °C. Then the blots were washed four times with TBST buffer, and then incubated with secondary antibodies for 30 min at room temperature. After washing for another four times, the protein bands were detected with enhanced chemiluminescence reagent (SuperSignal Western Pico Chemiluminescent Substrate; Pierce, Rockford, IL, USA) and visualised with the Electrophoresis Gel Imaging Analysis System (DNR Bio-Imaging Systems, Jerusalem, Israel).
(§4) Cells were incubated with DMSO or AZ304 for 75 min and p-ERK levels were determined using a p-ERK antibody based ELISA. […] Cells were incubated with DMSO or AZ304 (±EGF) for 75 min and p-ERK levels were determined using a p-ERK antibody based ELISA. […] (A375: BRAF V600E, A549: RAS MT; MC-F7: BRAF/RAS WT)

MC-F7 cells = assay: Western blot p-ERK and p-p38; type: cell-based, human; settings: MC-F7 (BRAF/RAS WT)
Method: as §3, §4

In the case of `COc1ccc2c(Nc3cc(NC(=O)c4cccc(C(C)(C)C#N)c4)ccc3C)ncnc2c1` [AZ304], the GI50 (L-363) is reported as 7.02 µM, the GI50 (CHL-1) is reported as 8.27 µM and the GI50 (COLO205) is reported as 0.28 µM. It also gave a GI50 (PANC-1) of 5.45 µM, a GI50 (SW620) of 2.78 µM and a GI50 (A549) of 16.7 µM. The GI50 (PC-3) was 6.68 µM, the “effect on p-p38” value (A549 cells; A549 (RAS MT), 75 min) was “potently inhibited p-p38” and the “effect on p-ERK” value (A549 cells; A549 (wild type BRAF, RAS MT), 75 min, 0.1, 1, 10 and 100 fold of A375 p-ERK EC50) was “concentration dependent reduction of p-ERK”. For the same compound, the “effect on p-p38” value (MC-F7 cells; 75 min) was “potently inhibited p-p38” and the “effect on p-ERK” value (MC-F7 cells; 75 min, 0.1, 1, 10 and 100 fold of A375 p-ERK EC50) was “concentration dependent reduction of p-ERK”.
